Laboratory results as given in US20250243189A1, “HERBICIDAL IMIDAZOLE-CONTAINING COMPOUNDS” (SYNGENTA CROP PROTECTION AG, priority 2022, published 2025).

Tests used:
Assay type in all cases: in vivo
Conditions in all cases: 250 g/ha, evaluated after 13 days, five-point scale
[1] = system: Echinochloa crus-galli (ECHCG); test: Pre-emergence herbicidal glasshouse test
How it was run: (§1)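 Herbicidal damage was rated as percentage, banded into a 1–5 scale, 13 days after application. Plants received 250 g/ha unless otherwise stated, sprayed pre-emergence (1 day after sowing) or post-emergence (8 days after sowing), and grew at 24/16° C with 14 h light.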

IPOHE [2] = test: Pre-emergence herbicidal glasshouse test
How it was run: as §1

[3] = system: Amaranthus retoflexus (AMARE); test: Pre-emergence herbicidal glasshouse test
How it was run: as §1

Setaria faberi (SETFA) [4] = test: Pre-emergence herbicidal glasshouse test
How it was run: as §1

AMAPA [5] = test: Pre-emergence herbicidal glasshouse test
[6] = system: Echinochloa crus-galli (ECHCG); test: Post-emergence herbicidal glasshouse test
How it was run: as §1

IPOHE [7] = test: Post-emergence herbicidal glasshouse test
How it was run: as §1

[8] = system: Amaranthus retoflexus (AMARE); test: Post-emergence herbicidal glasshouse test
How it was run: as §1

Setaria faberi (SETFA) [9] = test: Post-emergence herbicidal glasshouse test
How it was run: as §1

AMAPA [10] = test: Post-emergence herbicidal glasshouse test

Row | Compound | percentage damage caused to the plant, ECHCG [1] | percentage damage caused to the plant, IPOHE (IPOHE [2]) | percentage damage caused to the plant, AMARE [3] | percentage damage caused to the plant, SETFA (Setaria faberi (SETFA) [4]) | percentage damage caused to the plant, AMAPA (AMAPA [5]) | percentage damage caused to the plant, ECHCG [6] | percentage damage caused to the plant, IPOHE (IPOHE [7]) | percentage damage caused to the plant, AMARE [8] | percentage damage caused to the plant, SETFA (Setaria faberi (SETFA) [9]) | percentage damage caused to the plant, AMAPA (AMAPA [10])
1 | Cc1sccc1-c1nc(C(F)(F)F)cn1Cc1ncc(Cl)cn1 [Compound 1.035] | 5 (5=81-100%) | 4 (4=61-80%) | 5 (5=81-100%) | 5 (5=81-100%) | 5 (5=81-100%) | 5 (5=81-100%) | 4 (4=61-80%) | 5 (5=81-100%) | 5 (5=81-100%) | 4 (4=61-80%)
2 | FC(F)(F)c1cn(Cc2ncc(Cl)cn2)c(-c2cccs2)n1 [Compound 1.034] | 2 (2=21-40%) | 2 (2=21-40%) | 5 (5=81-100%) | 2 (2=21-40%) | 5 (5=81-100%) | 2 (2=21-40%) | 4 (4=61-80%) | 4 (4=61-80%) | 2 (2=21-40%) | 4 (4=61-80%)
3 | FC(F)(F)c1cn(Cc2ncc(Cl)cn2)c(-c2cc(Cl)sc2Cl)n1 [Compound 1.037] | 4 (4=61-80%) | 5 (5=81-100%) | 5 (5=81-100%) | 4 (4=61-80%) | 5 (5=81-100%) | 3 (3=41-60%) | 3 (3=41-60%) | 4 (4=61-80%) | 3 (3=41-60%) | 3 (3=41-60%)
4 | Cn1nccc1-c1nc(C(F)(F)F)cn1Cc1ncc(Cl)cn1 [Compound 1.005] | 5 (5=81-100%) | 5 (5=81-100%) | 5 (5=81-100%) | 5 (5=81-100%) | 5 (5=81-100%) | 5 (5=81-100%) | 4 (4=61-80%) | 5 (5=81-100%) | 5 (5=81-100%) | 5 (5=81-100%)
5 | FC(F)(F)c1cn(Cc2ncc(Cl)cn2)c(-c2ccsc2Cl)n1 [Compound 1.025] | 5 (5=81-100%) | 4 (4=61-80%) | 5 (5=81-100%) | 5 (5=81-100%) | 5 (5=81-100%) | 4 (4=61-80%) | 3 (3=41-60%) | 4 (4=61-80%) | 4 (4=61-80%) | 3 (3=41-60%)
6 | FC(F)(F)c1cn(Cc2ncc(Cl)cn2)c(-n2ccc(Cl)n2)n1 [Compound 1.066] | 1 (1=0-20%) | 4 (4=61-80%) | 5 (5=81-100%) | 2 (2=21-40%) | 5 (5=81-100%) | 1 (1=0-20%) | 4 (4=61-80%) | 4 (4=61-80%) | 1 (1=0-20%) | 3 (3=41-60%)
7 | Fc1cnn(-c2nc(C(F)(F)F)cn2Cc2ncc(Cl)cn2)c1 [Compound 1.067] | 1 (1=0-20%) | 2 (2=21-40%) | 5 (5=81-100%) | 1 (1=0-20%) | 4 (4=61-80%) | 1 (1=0-20%) | 2 (2=21-40%) | 4 (4=61-80%) | 1 (1=0-20%) | 3 (3=41-60%)
8 | FC(F)(F)c1cn(Cc2ncc(Cl)cn2)c(-c2ccsc2)n1 [Compound 1.030] | 5 (5=81-100%) | 4 (4=61-80%) | 5 (5=81-100%) | 5 (5=81-100%) | 5 (5=81-100%) | 4 (4=61-80%) | 4 (4=61-80%) | 5 (5=81-100%) | 5 (5=81-100%) | 5 (5=81-100%)
